Reference: the supplement of paper PMC10307832

What was measured:
Assay in all cases: relative viability (nuclei count vs DMSO), 5 days (fraction); higher = more cells survive
Linsitinib + Navitoclax = compound: C[C@]1(O)C[C@@H](c2nc(-c3ccc4ccc(-c5ccccc5)nc4c3)c3c(N)nccn32)C1 [Linsitinib] + CC1(C)CCC(c2ccc(Cl)cc2)=C(CN2CCN(c3ccc(C(=O)NS(=O)(=O)c4ccc(N[C@H](CCN5CCOCC5)CSc5ccccc5)c(S(=O)(=O)C(F)(F)F)c4)cc3)CC2)C1 [Navitoclax] (partner 0.5 µM)
How it was run: (§1)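 Lung cancer cell lines in 1536-well plates got either a single drug or a fixed anchor-drug dose together with five library-drug doses (not always all listed) in √10 steps, by pin tool, on the day after seeding. Nuclei were counted after 5 days, and relative viability is the treated-to-vehicle ratio of nuclei counts. Values are medians of duplicate plates.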

Linsitinib + Decitabine = compound: C[C@]1(O)C[C@@H](c2nc(-c3ccc4ccc(-c5ccccc5)nc4c3)c3c(N)nccn32)C1 [Linsitinib] + Nc1ncn([C@H]2C[C@H](O)[C@@H](CO)O2)c(=O)n1 [Decitabine] (partner 2 µM)
How it was run: as §1

Ispinesib + Trametinib = compound: Cc1ccc(C(=O)N(CCCN)[C@@H](c2nc3cc(Cl)ccc3c(=O)n2Cc2ccccc2)C(C)C)cc1 [Ispinesib] + CC(=O)Nc1cccc(-n2c(=O)n(C3CC3)c(=O)c3c(Nc4ccc(I)cc4F)n(C)c(=O)c(C)c32)c1 [Trametinib] (partner 0.02 µM)
How it was run: as §1

Ispinesib + Decitabine = compound: Cc1ccc(C(=O)N(CCCN)[C@@H](c2nc3cc(Cl)ccc3c(=O)n2Cc2ccccc2)C(C)C)cc1 [Ispinesib] + Nc1ncn([C@H]2C[C@H](O)[C@@H](CO)O2)c(=O)n1 [Decitabine] (partner 2 µM)
How it was run: as §1

Cell Line	relative viability (Linsitinib + Navitoclax; first compound 0.01 µM)	relative viability (Linsitinib + Navitoclax; first compound 0.03162 µM)	relative viability (Linsitinib + Navitoclax; first compound 0.1 µM)	relative viability (Linsitinib + Navitoclax; first compound 0.3162 µM)	relative viability (Linsitinib + Navitoclax; first compound 1 µM)	relative viability (Linsitinib + Decitabine; first compound 0.01 µM)	relative viability (Linsitinib + Decitabine; first compound 0.03162 µM)	relative viability (Linsitinib + Decitabine; first compound 0.1 µM)	relative viability (Linsitinib + Decitabine; first compound 0.3162 µM)	relative viability (Linsitinib + Decitabine; first compound 1 µM)	relative viability (Ispinesib + Trametinib; first compound 0.001 µM)	relative viability (Ispinesib + Trametinib; first compound 0.003162 µM)	relative viability (Ispinesib + Trametinib; first compound 0.01 µM)	relative viability (Ispinesib + Trametinib; first compound 0.03162 µM)	relative viability (Ispinesib + Trametinib; first compound 0.1 µM)	relative viability (Ispinesib + Decitabine; first compound 0.001 µM)	relative viability (Ispinesib + Decitabine; first compound 0.003162 µM)	relative viability (Ispinesib + Decitabine; first compound 0.01 µM)	relative viability (Ispinesib + Decitabine; first compound 0.03162 µM)	relative viability (Ispinesib + Decitabine; first compound 0.1 µM)
NCI-H1651	0.978	1.1	0.925	0.958	0.981	0.316	0.744	0.518	0.516	0.597	0.836	0.896	0.887	0.882	0.831	0.582	0.688	0.67	0.559	0.508
EBC-1	0.424	0.411	0.393	0.352	0.251	–	–	–	–	–	–	–	–	–	–	–	–	–	–	–
COR-L 105	0.826	0.759	0.856	0.604	0.709	0.636	0.569	0.597	0.554	0.659	0.466	0.424	0.426	0.363	0.377	0.595	0.662	0.67	0.43	0.337
RERF-LC-KJ	0.862	0.813	0.581	0.791	0.558	0.726	0.651	0.622	0.599	0.665	0.898	0.869	0.787	0.514	0.528	0.738	0.617	0.243	0.222	0.271
NCI-H1793	0.374	0.353	0.469	0.322	0.425	0.428	0.634	0.547	0.422	0.454	0.47	0.433	0.412	0.421	0.244	0.411	0.473	0.624	0.524	0.229
CAL-12T	1.2	1.2	1.28	1.05	0.991	–	–	–	–	–	0.353	0.315	0.28	0.294	0.215	–	–	–	–	–
NCI-H1993	0.937	0.902	0.839	1.01	0.6	0.646	0.564	0.473	0.506	0.499	0.619	0.527	0.414	0.508	0.423	0.679	0.667	0.555	0.678	0.479
LXF-289	0.951	0.932	0.929	0.783	0.939	0.366	0.481	0.382	0.333	0.39	0.667	0.729	0.762	0.629	0.606	0.359	0.388	0.387	0.404	0.349
NCI-H1792	0.553	0.597	0.5	0.54	0.438	0.496	0.484	0.512	0.472	0.363	0.42	0.463	0.515	0.398	0.117	0.548	0.546	0.725	0.484	0.238
A549	1.21	1.15	1.1	1.01	0.895	0.246	0.234	0.309	0.12	0.241	–	–	–	–	–	0.149	0.254	0.326	0.315	0.196
NCI-H1648	–	–	–	–	–	0.468	0.445	0.428	0.377	0.46	0.47	0.559	0.479	0.583	0.496	0.532	0.484	0.474	0.614	0.343
SW 900	–	–	–	–	–	0.474	0.537	0.466	0.374	0.388	0.914	0.947	1.02	0.924	0.326	0.388	0.344	0.43	0.396	0.311
ABC-1	–	–	–	–	–	1.02	1.17	1.22	0.995	0.842	–	–	–	–	–	0.997	1.12	1.35	–	0.509
NCI-H661	–	–	–	–	–	0.545	0.676	0.536	0.492	0.535	0.625	0.616	0.567	0.274	0.277	0.614	0.567	0.511	0.264	0.231
NCI-H2342	–	–	–	–	–	0.765	0.78	0.732	0.688	0.75	0.892	0.819	0.896	0.797	0.722	0.821	0.756	0.76	0.743	0.78
NCI-H2228	0.81	1.09	0.941	0.787	0.791	–	–	–	–	–	0.615	0.496	0.415	0.263	0.28	–	–	–	–	–
NCI-H1299	1.07	1.03	1.03	0.916	1.04	–	–	–	–	–	–	–	–	–	–	–	–	–	–	–
NCI-H358	–	–	–	–	–	0.242	0.354	0.256	0.208	0.222	0.126	0.131	0.128	0.115	0.106	0.187	0.205	0.213	0.109	0.139
LCLC-103H	–	–	–	–	–	0.757	0.713	0.658	0.628	0.739	0.724	0.7	0.723	0.667	0.654	0.757	0.741	0.739	0.68	0.6
Calu-6	0.826	0.688	0.843	0.629	0.572	–	–	–	–	–	–	–	–	–	–	–	–	–	–	–
NCI-H650	–	–	–	–	–	0.313	0.396	0.287	–	0.306	0.969	1.07	1.03	0.828	0.779	0.289	0.325	0.328	0.33	0.306
